According to patent US20120083522A1, “MODULATION OF INFLAMMATORY RESPONSES BY FACTOR XI” (Isis Pharmaceuitcals, inc., priority 2009, published 2012):
In the oligonucleotide strings, read from the 5' end, every base follows the letter of its sugar. An asterisk marks phosphorothioate; unmarked linkages are phosphodiester. Other units and linkages are bracketed, terminal groups are in braces. A string of capitals states the bases alone. e = 2'-O-(2-methoxyethyl) (MOE); [5mC] = 5-methylcytosine; d = 2'-deoxy (DNA)

What was measured:
Type in all cases: cell-based
[1] = system: human Factor XI mRNA; test: Antisense inhibition in HepG2 cells by microwalk gapmers, 75 nM, lipofectin (Example 3); conditions: HepG2 cells, 75 nM
In short: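 HepG2 cells (10,000 per well) were transfected with 75 nM gapmer using lipofectin and treated for about 24 h. Factor XI mRNA was quantified by real-time PCR, normalized to RiboGreen total RNA and expressed as percent inhibition versus untreated controls.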

[2] = system: human Factor XI mRNA; test: Dose-dependent inhibition in HepG2 cells, lipofectin (Example 4); conditions: 16 hours
Protocol: (§1) Cells were plated at a density of 10,000 cells per well and transfected using lipofectin reagent with 9.375 nM, 18.75 nM, 37.5 nM and 75 nM concentrations of antisense oligonucleotide, as specified in Table 9. After a treatment period of approximately 16 hours, RNA was isolated from the cells and Factor XI mRNA levels were measured by quantitative real-time PCR. Human Factor XI primer probe set RTS 2966 was used to measure mRNA levels. Factor XI mRNA levels were adjusted according to total RNA content, as measured by RIBOGREEN®. Results are presented as percent inhibition of Factor XI, relative to untreated control cells.

[3] = system: human Factor XI mRNA; test: Dose-dependent inhibition in HepG2 cells, electroporation (Example 4); conditions: 16 hours
Protocol: as §1, with “The gapmers were also transfected via electroporation and their dose dependent inhibition of human Factor XI mRNA was measured. Cells” for “Cells”, “20,000” for “10,000”, “via electroporation” for “using lipofectin reagent”, “0.7 μM, 2.2 μM, 6.7 μM,” for “9.375 nM, 18.75 nM, 37.5 nM”, “20 μM” for “75 nM”, “10.” for “9.”

[4] = oligonucleotides targeted to nucleobases 1018 to 1042 of SEQ ID NO: 1
[5] = oligonucleotides targeted to nucleobases 1275 to 1318 of SEQ ID NO: 1

Row | Substance | % inhibition of human Factor XI mRNA levels [1, 4] | percent inhibition of Factor XI mRNA, relative to untreated control cells ([2]; 9.375 nM) | percent inhibition of Factor XI mRNA, relative to untreated control cells ([2]; 18.75 nM) | percent inhibition of Factor XI mRNA, relative to untreated control cells ([2]; 37.5 nM) | percent inhibition of Factor XI mRNA, relative to untreated control cells ([2]; 75 nM) | percent inhibition of Factor XI mRNA, relative to untreated control cells ([3]; 0.7 μM) | percent inhibition of Factor XI mRNA, relative to untreated control cells ([3]; 2.2 μM) | percent inhibition of Factor XI mRNA, relative to untreated control cells ([3]; 6.7 μM) | percent inhibition of Factor XI mRNA, relative to untreated control cells ([3]; 20 μM) | % inhibition of human Factor XI mRNA levels ([1]; oligonucleotides targeted to nucleobases 1062 to 1091 of SEQ ID NO: 1) | % inhibition of human Factor XI mRNA levels [1, 5]
1 | 413474 (antisense eA*eG*e[5mC]*eA*eA*d[5mC]*d[5mC]*dG*dG*dG*dA*dT*dG*dA*dT*eG*eA*eG*eT*eG) [compound 413474] | 93% | 29% | 44% | 57% | 67% | 0% | 5% | 52% | 81% | – | –
2 | 416842 (antisense eT*eG*eA*eG*eA*dT*dT*d[5mC]*dT*dT*dT*dG*dG*dG*d[5mC]*e[5mC]*eA*eT*eT*e[5mC]) [compound 416842] | – | 18% | 33% | 62% | 71% | 0% | 10% | 66% | 92% | 94% | –
3 | 416908 (antisense eG*e[5mC]*eA*dA*d[5mC]*d[5mC]*dG*dG*dG*dA*dT*dG*dA*dT*dG*dA*dG*eT*eG*e[5mC]) [compound 416908] | 98% | 36% | 57% | 67% | 76% | 7% | 58% | 74% | 89% | – | –
4 | 416922 (antisense eG*e[5mC]*eA*d[5mC]*dA*dG*dT*dT*dT*d[5mC]*dT*dG*dG*d[5mC]*dA*dG*dG*e[5mC]*e[5mC]*eT) [compound 416922] | – | 14% | 25% | 49% | 75% | 35% | 51% | 77% | 91% | – | 94%
5 | 416923 (antisense eT*eG*e[5mC]*dA*d[5mC]*dA*dG*dT*dT*dT*d[5mC]*dT*dG*dG*d[5mC]*dA*dG*eG*e[5mC]*e[5mC]) [compound 416923] | – | 36% | 47% | 60% | 67% | 15% | 30% | 60% | 90% | – | 96%
6 | 416924 (antisense eG*eT*eG*d[5mC]*dA*d[5mC]*dA*dG*dT*dT*dT*d[5mC]*dT*dG*dG*d[5mC]*dA*eG*eG*e[5mC]) [compound 416924] | – | 25% | 38% | 56% | 59% | 22% | 40% | 63% | 70% | – | 97%
7 | 416926 (antisense eT*eG*eG*dT*dG*d[5mC]*dA*d[5mC]*dA*dG*dT*dT*dT*d[5mC]*dT*dG*dG*e[5mC]*eA*eG) [compound 416926] | – | 31% | 43% | 63% | 82% | 47% | 71% | 91% | 94% | – | 93%
8 | 416931 (antisense eG*eG*e[5mC]*dA*dT*dT*dG*dG*dT*dG*d[5mC]*dA*d[5mC]*dA*dG*dT*dT*eT*e[5mC]*eT) [compound 416931] | – | 44% | 39% | 57% | 71% | 7% | 24% | 60% | 82% | – | 96%
9 | 416941 (antisense eG*eG*e[5mC]*dA*dG*d[5mC]*dG*dG*dA*d[5mC]*dG*dG*d[5mC]*dA*dT*dT*dG*eG*eT*eG) [compound 416941] | – | 33% | 54% | 63% | 78% | 16% | 38% | 79% | 89% | – | 95%
10 | 416984 (antisense e[5mC]*eA*dA*d[5mC]*d[5mC]*dG*dG*dG*dA*dT*dG*dA*dT*dG*dA*eG*eT*eG*e[5mC]*eA) [compound 416984] | 89% | 26% | 50% | 62% | 81% | 43% | 54% | 88% | 90% | – | –
11 | 416985 (antisense eG*e[5mC]*dA*dA*d[5mC]*d[5mC]*dG*dG*dG*dA*dT*dG*dA*dT*dG*eA*eG*eT*eG*e[5mC]) [compound 416985] | 88% | 17% | 30% | 47% | 57% | 12% | 48% | 45% | 69% | – | –
12 | 417017 (antisense eG*e[5mC]*dA*dG*d[5mC]*dG*dG*dA*d[5mC]*dG*dG*d[5mC]*dA*dT*dT*eG*eG*eT*eG*e[5mC]) [compound 417017] | – | – | – | – | – | – | – | – | – | – | 82%
13 | 417018 (antisense eG*eG*d[5mC]*dA*dG*d[5mC]*dG*dG*dA*d[5mC]*dG*dG*d[5mC]*dA*dT*eT*eG*eG*eT*eG) [compound 417018] | – | – | – | – | – | – | – | – | – | – | 82%
14 | 417019 (antisense eT*eG*dG*d[5mC]*dA*dG*d[5mC]*dG*dG*dA*d[5mC]*dG*dG*d[5mC]*dA*eT*eT*eG*eG*eT) [compound 417019] | – | – | – | – | – | – | – | – | – | – | 84%
15 | 417020 (antisense e[5mC]*eT*dG*dG*d[5mC]*dA*dG*d[5mC]*dG*dG*dA*d[5mC]*dG*dG*d[5mC]*eA*eT*eT*eG*eG) [compound 417020] | – | – | – | – | – | – | – | – | – | – | 84%
16 | 417021 (antisense eA*e[5mC]*dT*dG*dG*d[5mC]*dA*dG*d[5mC]*dG*dG*dA*d[5mC]*dG*dG*e[5mC]*eA*eT*eT*eG) [compound 417021] | – | – | – | – | – | – | – | – | – | – | 74%
